Patent US20020043656A1, “GREEN ORGANIC LUMINOPHOR” (priority 2000, published 2002)
Where two headings read alike, the source gives them in different places.

Columns and labels:
[1] = Absolute fluorescence quantum yield, equal absorption technique; type: physicochemical
Protocol: The absolute quantum yield was determined using the equal absorption technique (A. S. Cherkasov, Z. Fiz. Khim. 29, 2209, […]).

[2] = Fluorescence (luminescence) spectra; type: physicochemical; conditions: for Luminescence in toluene λmax: 365 nm excitation
Protocol: Fluorescence spectra in toluene were measured and absolute fluorescence quantum yields in crystals were determined.
The fluorescence spectra were measured using a setup including a 3MR-3 mirror monochromator, a FEU-1 8 photomultiplier, an M-95 microampermeter. A SVDT-95 lamp was used as the excitation source, the 365 nm exciting line was singled out of its spectrum.

[3] = Electron absorption spectra / extinction; type: physicochemical
From the text: The compound structure was confirmed by electron absorption spectra and IR ones.

[4] = cited from earlier work; for Luminescence in toluene λmax: prior art analogs
[5] = cited from earlier work; for Luminescence in toluene η (quantum yield): prior art analogs; for quantum yield η: prior art, medium not stated
[6] = prior art, cited from earlier work
[7] = various reagents; prior art; cited from earlier work
[8] = prior art; cited from earlier work

Row | Luminescence in toluene η (quantum yield) ([1]; in toluene solution) | quantum yield ([1]; medium not stated) | quantum yield of photoluminescence η ([1]; solid state (vacuum-deposited film)) | Luminescence in toluene λmax [2] [nm] | Luminescence in toluene λmax ([2]; listed as Example 1) [nm] | λmax.lum ([2]; medium not stated) [nm] | maximum absorption (extinction coefficient) [3] | Absorption λ ([3]; in toluene) [nm] | Molecule | Luminescence in toluene λmax [4] [nm] | λmax.lum ([4]; prior art, medium not stated) [nm] | Luminescence in toluene η (quantum yield) [5] | quantum yield η [5] | luminescence spectral maximum wavelength ([4]; depending on the luminophor concentration) [nm] | solubility in organic media ([6]; organic media) | solubility in water ([6]; water) | chemical stability [7] | extinction coefficient in the absorption maximum [8] | Luminescence in toluene η (quantum yield) ([5]; listed as Lumogen yellow-green)
1 | 0.85 | approximately 0.82+0.05 | 0.78 | 510 | 495 | > 510 | ≤ 30,000 | 412 | 1-phenyl-5-(p-methoxyphenyl)-3-[1,8-naphthoylene-1′,2′-benzimidazol-4-yl]-2-pyrazol | – | – | – | – | – | – | – | – | – | –
2 | – | – | – | – | – | – | – | – | COc1cccc2c(-c3ccc(N(C)C)cc3)c3nn(C)cc3nc12 [Prior art structure analog, 2-methyl-5-methoxy-9-(4-dimethylaminophenyl)-2H-pyrazolo[4,3-b]quinoline] | 510 | 510 | 0.8 | 0.8 | – | – | – | – | – | –
3 | – | – | – | – | – | – | – | – | O=c1c2cccc3cccc(c32)c2nc3ccccc3n12 [Prior art emission range analog, 1,8-naphthoylene-1′,2′-benzimidazol] | 490 | – | 0.5 | > 0.5 | 490 to 510 | soluble in organic media | essentially water-insoluble | chemically stable against various reagents | 8000 | > 0.5
